Test results as given in patent US9963457B2, “Crystal of 5-((2-(6-amino)-9H-purin-9-yl)ethyl)amino)pentan-1-o1” (FOREVER CHEER INTERNATIONAL LIMITED, priority 2016, dated 2018).

Experiments:
[1] = Stability test of the crystal form (stress, long-term and accelerated test); type: physicochemical
Description: Stress test, long-term stable test and accelerated stability test of the compound with the crystal form:
The stability of the compound with such a crystal form was investigated under conditions of a high temperature (60° C.), high humidity (92.5% RH), strong light irradiation (5 Klx), 40° C./75% RH (for accelerated test) and 25° C./60% RH (for long term test), in accordance with “Guidelines for Stability Testing of bulk pharmaceutical chemicals and formulation” (Chinese Pharmacopoeia 2015 Edition, four main sections of general requirements 9001).
10 mg of the crystalline sample involved in the Examples of the present invention was accurately weighed and placed on the bottom of a glass sample vial, and then spread out to form a thin layer. The samples for test under high temperature and high humidity conditions and for the long-term test were contained in vials sealed with aluminum-foil paper, and some small holes were made on the aluminum-foil paper to ensure that the sample can be fully in contact with ambient conditions; The samples for test under strong light irradiation and for the accelerated test were contained in vials sealed with screw bottle caps. The samples placed under different conditions were taken and analyzed on day 5, 10, and 30, and the analysis results were compared with the initial test results on day 0.

[2] = test system: mice treated with yeast polysaccharide; test: Elevated plus maze test (EPM), visceral pain; type: in vivo; settings: 3 mg/kg IP
Description: (§1) The visceral pain is induced by injecting yeast polysaccharide into the mice colony, and the yeast polysaccharide is derived from Saccharomyces cerevisiae (Sigma), wherein one kind of dextran is resident on the cell wall of the yeast and is identified as a protein-carbohydrate complex. Specifically, the mice were anesthetized after inhaling 1-3% isoflurane, and then a […] suspension of yeast polysaccharide (formulated as a 30 mg/ml solution in physiological saline) was injected into the colon of the mice by using a 24 mm long plastic feed needle within 2 minutes. The control group was injected with 0.1 ml physiological saline. The yeast polysaccharide or physiological saline was injected daily for 3 days. A visceral pain behavior test was carried out according to the Laird procedure. The number of times the mice licking the abdomen within 10 minutes was recorded, excluding other grooming behaviors, stretching of whole body, pressing the abdomen against the floor, and an 1-2-second arched posture. On day 1, 7 and 14 after the injection into the colon, an open field test was carried out from 9 am to 12 pm, and the entire test was a double-blind test. Prior to the behavioral test, the mice were acclimated for 30 minutes in an observation room. The mice were placed at the middle of a new open zone (43.2×43.2×30.5 cm^3) with micro light (<50 lux) and a fan. The movement distance, vertical count, movement count, stereotypic behavior count, and jumping count of animals were recorded within 30 minutes by means of an activity monitoring system equipped with multiple pairs of packaged light beam sets.
An anxious animal model of the prior art—the elevated plus maze test (EPM) was adopted. The mice were acclimated for 30 minutes in the room prior to the behavior observation. The EPM was composed of two open arms (250 lux) and two closed arms (350 lux) arranged opposite to each other. For each test, an individual animal was placed at the center of the test position and allowed to move freely. The test is carried out for 5 minutes. The number of entering the test position for each arm and the time spent therefore were recorded.
The EPM test tested the anxiety behavior of mice after the test treatment. The physiological saline, non-crystalline NB001 (3 mg/kg), the crystal of the present invention (3 mg/kg), and Gabapentin (30 mg/kg) as a positive control were intraperitoneally injected (IP) into the mice treated with yeast polysaccharide respectively. The behaviors of Mice were observed 28 days after the yeast polysaccharide treatment.

[3] = test system: mice after neuropathic pain; test: Bright/dark box test, neuropathic pain; type: in vivo; settings: 3 mg/kg IP, 3 mg/kg
[4] = test system: mice treated with yeast polysaccharide; test: Bright/dark box test, visceral pain; type: in vivo; settings: 3 mg/kg IP
Description: as §1
Bright/dark box test: The test procedure was carried out by using an improved method in accordance with the prior art. The device was composed of a rectangular organic glass box (44×8.5×25 cm^3), which is separated into bright and dark compartments with the equal size by using a door. A 60 watt lamp (400 lux) in turn-on state was placed at 30 cm above the box to irradiate the bright compartment. Each animal was first placed in the dark compartment for 20 seconds, and then the door leading to the bright compartment was open. The time each animal stayed in the dark compartment and the time each animal enters the bright compartment within 10 minutes were recorded.
In order to confirm the effect of the crystal of the present invention on inhibiting anxiety, mice were subjected to a bright/dark box test, and the results were as shown in Table 8. The physiological saline, non-crystalline NB001 (3 mg/kg), the crystal of the present invention (3 mg/kg), and Gabapentin (30 mg/kg) as a positive control were intraperitoneally injected (IP) into the mice treated with yeast polysaccharide respectively. The behaviors of Mice were observed 28 days after the yeast polysaccharide treatment.

[5] = Accelerated test (40° C./75% RH), Day 30
[6] = Long-term test (25° C./60% RH), Day 30
[7] = Stress test, high humidity (92.5% RH), Day 5
[8] = Stress test, high humidity (92.5% RH), Day 10
[9] = Stress test, high humidity (92.5% RH), Day 30
[10] = Stress test, high temperature (60° C.), Day 5
[11] = Stress test, high temperature (60° C.), Day 10
[12] = Stress test, high temperature (60° C.), Day 30
[13] = Stress test, strong light irradiation (5 Klx), Day 10

Characteristics [1, 5]: off-white powder
Content (%) [1, 5]: 99.51%
Total Impurities (%) [1, 5]: 0.49%
Characteristics ([1]; Day 0): off-white powder
Content (%) ([1]; Day 0): 99.39%
Total Impurities (%) ([1]; Day 0): 0.61%
Characteristics [1, 6]: off-white powder
Content (%) [1, 6]: off-
Total Impurities (%) [1, 6]: 0.60%
Characteristics [1, 7]: off-white powder
Content (%) [1, 7]: 99.51%
Total Impurities (%) [1, 7]: 0.49%
Characteristics [1, 8]: off-white powder
Content (%) [1, 8]: 99.41%
Total Impurities (%) [1, 8]: 0.59%
Characteristics [1, 9]: off-white powder
Content (%) [1, 9]: 99.53%
Total Impurities (%) [1, 9]: 0.47%
Characteristics [1, 10]: off-white powder
Content (%) [1, 10]: 99.47%
Total Impurities (%) [1, 10]: 0.53%
Characteristics [1, 11]: off-white powder
Content (%) [1, 11]: 99.52%
Total Impurities (%) [1, 11]: 0.48%
Characteristics [1, 12]: off-white powder
Content (%) [1, 12]: 99.43%
Total Impurities (%) [1, 12]: 0.57%
Characteristics [1, 13]: off-white powder
Content (%) [1, 13]: 99.48%
Total Impurities (%) [1, 13]: 0.52%
stability under various test conditions ([1]; all test conditions of Table 5): good
SMILES: Nc1ncnc2c1ncn2CCNCCCCCO [New NB001, 5-(((2-(6-amino)-9H-purin-9-yl)ethyl)amino)pentan-1-ol]
therapeutic effect in EPM test as compared with the positive control group ([2]; Table 7, listed as the crystal of the present invention): extremely significant
% time in the open arm ([2]; Visceral pain, 3 mg/kg): 10.3 ± 1.2 (8) %
% time in the open arm [3]: 18.5 ± 1.4 (8) %
therapeutic effect in bright/dark box test as compared with the positive control group ([4]; Table 8, listed as the crystal of the present invention): extremely significant
% time in the open arm ([4]; Bright/dark box test, Visceral pain, 3 mg/kg): 10.3 ± 1.2 (8) %
